Structures can show the parent of a compound that is named as a salt.
System: TNF-α
Assay: LPS stimulation of TNF production by U937 cells
Format: cell-based, human
Settings: Homo sapiens, U-937, LPS-stimulated U937 cells; read-out: U937 Cell Assay IC50
Method in brief: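 PMA-differentiated human U937 cells (20 ng/ml PMA, 24 h, then 24-48 h rest) at 2 million cells/ml, 0.1% DMSO final, stimulated with E. coli LPS (100 ng/ml final) for 4 h at 37° C. TNF-α in medium measured by ELISA; IC50 in μM.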

In order of falling IC50:
1. Fc1ccc(-c2[nH]nc(Nc3ccccc3)c2-c2ccncc2)cc1 [Example A-20, 5-(4-Fluorophenyl)-N-phenyl-4-(4-pyridinyl)-1H-pyrazol-3-amine]  1090 nM
2. Fc1ccc(-c2[nH]nc(-c3ccccc3)c2-c2ccncc2)cc1 [Example A-21, 4-[5-(4-fluorophenyl)-3-phenyl-1H-pyrazol-4-yl]pyridine]  77 nM

Target: T1, human p38 kinase alpha (Homo sapiens, UniProt Q16539)
T1 construct: The coding region of the human p38a cDNA was obtained by PCR-amplification from RNA isolated from the human monocyte cell line THP.1; GST (N); made in house; host or cells: E. coli DH10B
Assay: p38 kinase in vitro assay, phosphorylation of biotinylated PHAS-I with gamma 32P-ATP
Format: biochemical
Settings: activated human p38 kinase alpha, PHAS-I substrate, 50 μM unlabeled ATP; read-out: p38 kinase IC50
Method in brief: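 Radiometric filter-capture read-out: streptavidin plates trap biotin-PHAS-I labelled by activated (MKK6) human p38α from γ-32P-ATP. Buffer 25 mM HEPES pH 7.5, 10 mM magnesium acetate, 50 μM cold ATP; reactions 1 h or overnight at 30 °C; inhibitors 10-fold dilutions 100 to 0.001 μM, triplicates, 1% DMSO.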

T1 sequence (Q16539 whole entry): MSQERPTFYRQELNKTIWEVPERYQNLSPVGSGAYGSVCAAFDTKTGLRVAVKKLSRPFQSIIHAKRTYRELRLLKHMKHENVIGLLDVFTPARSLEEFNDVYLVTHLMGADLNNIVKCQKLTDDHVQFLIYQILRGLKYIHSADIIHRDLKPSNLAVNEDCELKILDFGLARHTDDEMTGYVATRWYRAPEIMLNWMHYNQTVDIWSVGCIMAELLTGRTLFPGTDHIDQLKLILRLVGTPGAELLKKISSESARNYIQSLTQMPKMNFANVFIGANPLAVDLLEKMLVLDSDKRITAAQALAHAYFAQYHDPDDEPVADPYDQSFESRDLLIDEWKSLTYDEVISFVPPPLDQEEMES

Compound `Fc1ccc(-c2n[nH]c(-c3ccncc3)c2-c2ccncc2)cc1` [Example A-23, 4-[3-(4-fluorophenyl)-4-(4-pyridinyl)-1H-pyrazol-5-yl]pyridine] has an IC50 of 1500 nM.

System: not given
Assay: not given
Settings: not given

Compared with `CSC(SC)=C(C(=O)c1ccc(Cl)cc1)c1ccncc1` [Example A-433], `O=C(Cc1ccncc1)c1ccc(Cl)cc1` [Example A-431] is higher in melting point: 87.6 to 88.2 °C for the first, 95.5 to 97.3 °C for the second.

Compared with `CN1CCN(c2n[nH]c(-c3ccc(F)cc3)c2-c2ccncc2)CC1.O.O` (hydrate or solvate), `CSc1ccc(-c2[nH]nc(N3CCN(C)CC3)c2-c2ccncc2)cc1` [Example A-423, 1-[5-(4-thiomethoxyphenyl)-4-(4-pyridinyl)-1H-pyrazol-3-yl]-4-methylpiperazine] is higher in melting point: 238 to 240 °C for the first, 275.6 to 281.9 °C for the second.

First: Cc1ccc(S(=O)(=O)Nc2[nH]nc(-c3ccc(Cl)cc3)c2-c2ccncc2)cc1 [Example A-484]
Second: CS(=O)(=O)N1CCN(c2[nH]nc(-c3ccc(Cl)cc3)c2-c2ccncc2)CC1 (hydrate or solvate) [Example A-320, 1-[5-(4-chlorophenyl)-4-(4-pyridinyl)-1H-pyrazol-3-yl]-4-(methylsulfonyl)piperazine, monohydrate]
The melting point of the first is higher: 284.3 to 284.4 °C for the first, 245 to 248 °C for the second.

Compared with `Fc1ccc(-c2n[nH]c(-c3ccncc3)c2-c2ccncc2)cc1` [Example A-23, 4-[3-(4-fluorophenyl)-4-(4-pyridinyl)-1H-pyrazol-5-yl]pyridine], `Fc1ccc(-c2[nH]nc(-c3ccccc3)c2-c2ccncc2)cc1` [Example A-21, 4-[5-(4-fluorophenyl)-3-phenyl-1H-pyrazol-4-yl]pyridine] is lower in melting point: 304 °C for the first, 265 to 267 °C for the second.

First: CN1CCN(c2[nH]nc(-c3ccc(F)cc3)c2-c2ccncc2)CC1 (hydrate or solvate) [Example A-317, 1-[5-(4-fluorophenyl)-4-(4-pyridinyl)-1H-pyrazol-3-yl]-4-methylpiperazine, dihydrate]
Second: Fc1ccc(-c2[nH]nc(N3CCNCC3)c2-c2ccncc2)cc1 (as salt: hydrochloride) [Example A-172, 1-[5-(4-fluorophenyl)-4-(4-pyridinyl)-1H-pyrazol-3-yl]piperazine trihydrochloride]
The melting point of the first is higher: 262 to 264 °C for the first, 204 to 206 °C for the second.

First: CCNc1cc(-c2c[nH]nc2-c2cccc(Cl)c2)ccn1 [Example A-222, 4-[3-(3-chlorophenyl)-1H-pyrazol-4-yl]-N-ethyl-2-pyridinamine]
Second: NNc1cc(-c2c[nH]nc2-c2cccc(Cl)c2)ccn1 [Example A-219, 4-[3-(3-chlorophenyl)-1H-pyrazol-4-yl]-2(1H)-pyridinone hydrazone]
The melting point of the first is higher: 186 to 187 °C for the first, 163 to 164 °C for the second.

First: OCCn1nc(-c2ccc(F)cc2)c(-c2ccncc2)c1-c1cnc[nH]1 [Example A-198, 3-(4-fluorophenyl)-5-(4-imidazolyl)-4-(4-pyridinyl)-1H-pyrazole-1-ethanol]
Second: O=c1cc(-c2c(-c3ccncc3)c(-c3ccc(F)cc3)nn2CCO)cc[nH]1 [Example A-194, 4-[3-(4-fluorophenyl)-1-(2-hydroxyethyl)-4-(4-pyridinyl)-1H-pyrazol-5-yl]-2(1H)-pyridinone]
The melting point of the first is lower: 227 to 228 °C for the first, 250 to 251 °C for the second.

Compared with `Fc1ccc(-c2[nH]nc(C(F)(F)F)c2-c2ccncc2)cc1` [Example A-190], `Fc1ccc(-c2[nH]nc(Nc3ccccc3)c2-c2ccncc2)cc1` [Example A-20, 5-(4-Fluorophenyl)-N-phenyl-4-(4-pyridinyl)-1H-pyrazol-3-amine] is lower in melting point: 281.94 °C for the first, 218 to 219 °C for the second.

First: CCOC(=O)Nc1nccc(-c2cn[nH]c2-c2ccc(F)cc2)n1 [Example A-308, Ethyl [4-[3-(4-fluorophenyl)-1H-pyrazol-4-yl]-2-pyrimidinyl]carbamate]
Second: NNc1nccc(-c2cn[nH]c2-c2ccc(F)cc2)n1 [Example A-300, 4-[3-(4-fluorophenyl)-1H-pyrazol-4-yl]-2(1H)-pyrimidinone hydrazone]
The melting point of the first is higher: 163 to 165 °C for the first, 149 to 150 °C for the second.

First: CNC(=O)c1cc(-c2cn[nH]c2-c2ccc(F)cc2)ccn1 [Example A-225, 4-[3-(4-fluorophenyl)-1H-pyrazol-4-yl]-N-methyl-2-pyridinecarboxamide]
Second: NC(=O)c1cc(-c2cn[nH]c2-c2ccc(F)cc2)ccn1 [Example A-223, 4-[3-(4-fluorophenyl)-1H-pyrazol-4-yl]-2-pyridinecarboxamide]
The melting point of the first is lower: 88 to 89 °C for the first, 230 to 231 °C for the second.

First: Clc1cccc(-c2n[nH]cc2-c2ccnc(NCCc3ccccc3)c2)c1 [Example A-221, 4-[3-(3-chlorophenyl)-1H-pyrazol-4-yl]-N-(phenylethyl)-2-pyridinamine]
Second: Cc1cc(-c2n[nH]cc2-c2ccncc2)ccc1Cl [Example A-199, 4-[3-(4-chloro-3-methylphenyl)-1H-pyrazol-yl]pyridine]
The melting point of the first is lower: 185 to 186 °C for the first, 198.17 °C for the second.

Going from `CCn1nc(-c2ccc(Cl)cc2)c(-c2ccncc2)c1C` [Example A-206, 4-[3-(4-chlorophenyl)-1-ethyl-5-methyl-1H-pyrazol-4-yl]pyridine] to `Cc1nn(C)c(-c2ccc(Cl)cc2)c1-c1ccncc1` [Example A-32, 4-[5-(4-chlorophenyl)-1,3-dimethyl-1H-pyrazol-4-yl]pyridine], the melting point falls from 164.36 °C to 88.6 °C.

Going from `Clc1ccccc1-c1[nH]ncc1-c1ccncc1` [Example A-209, 4-[3-(2-chlorophenyl)-1H-pyrazol-4-yl]pyridine] to `Fc1ccc(-c2[nH]ncc2-c2ccncn2)cc1` [Example A-312, 4-[3-(4-fluorophenyl)-1H-pyrazol-4-yl]pyrimidine], the melting point falls from 208.46 °C to 191.47 °C.

First: Clc1ccc(-c2n[nH]c(OCCN3CCOCC3)c2-c2ccncc2)cc1 [Example A-440]
Second: CN1CCC(N(C)c2[nH]nc(-c3ccc(Cl)cc3)c2-c2ccncc2)CC1 (hydrate or solvate)
The melting point of the first is lower: 198.9 to 199.9 °C for the first, 260 to 261 °C for the second.

First: COC(=O)c1cc(-c2c[nH]nc2-c2ccc(F)cc2)ccn1 [Example A-224, Methyl 4-[3-(4-fluorophenyl)-1H-pyrazol-4-yl]-2-pyridinecarboxylate]
Second: CNc1nccc(-c2c[nH]nc2-c2ccc(F)cc2)n1 [Example A-302, 4-[3-(4-fluorophenyl)-1H-pyrazol-4-yl]-N-methyl-2-pyrimidinamine]
The melting point of the first is higher: 239 to 241 °C for the first, 217 to 218 °C for the second.

First: CC(C)(C)OC(=O)N1CCN(c2n[nH]c(-c3ccc(F)cc3)c2-c2ccncc2)CC1 [Example A-171, 1,1-dimethylethyl 4-[5-(4-fluorophenyl)-4-(4-pyridinyl)-1H-pyrazol-3-yl]-1-piperazinecarboxylate]
Second: Clc1ccc(-c2[nH]nc(N3CCNCC3)c2-c2ccncc2)cc1 [Example A-328, 1-[5-(4-chlorophenyl)-4-(4-pyridinyl)-1H-pyrazol-3-yl]piperazine]
The melting point of the first is lower: 243 to 244 °C for the first, 264 to 265 °C for the second.

Compared with `Cc1n[nH]c(-c2c(F)cccc2F)c1-c1ccncc1` [Example A-184, 4-[3-(2,6-difluorophenyl)-5-methyl-1H-pyrazol-4-yl]pyridine], `Cn1nc(-c2ccc(F)cc2)c(-c2ccncc2)c1C1CC1` [Example A-191] is lower in melting point: 236.67 °C for the first, 129 to 130 °C for the second.

First: CC(=O)n1ccc(-c2c(-c3ccncc3)c(-c3ccc(F)cc3)nn2CCO)cc1=O [Example A-195, 1-acetyl-4-[3-(4-fluorophenyl)-1-(2-hydroxyethyl)-4-(4-pyridinyl)-1H-pyrazol-5-yl]-2(1H)-pyridinone]
Second: COc1cc(-c2c(-c3ccncc3)c(-c3ccc(F)cc3)nn2CCO)ccn1 [Example A-193, 3-(4-fluorophenyl)-5-(2-methoxy-4-pyridinyl)-4-(4-pyridinyl)-1H-pyrazole-1-ethanol]
The melting point of the first is higher: 220 to 221 °C for the first, 168 to 169 °C for the second.

First: Nc1nccc(-c2cn[nH]c2-c2ccc(F)cc2)n1 [Example A-306, 4-[3-(4-fluorophenyl)-1H-pyrazol-4-yl]-2-pyrimidinamine]
Second: Fc1ccc(-c2[nH]ncc2-c2ccnc(NC3CC3)n2)cc1 [Example A-304, N-cyclopropyl-4-[3-(4-fluorophenyl)-1H-pyrazol-4-yl]-2-pyrimidinamine]
The melting point of the first is higher: 273 to 274 °C for the first, 203 to 204 °C for the second.

Compared with `O=C(C(=C1SCS1)c1ccncc1)c1ccc(I)cc1` [Example A-401], `O=C(O)C1CC1c1c(-c2ccncc2)c(-c2ccc(F)cc2)nn1CCO` (centres unmarked) [Example A-197, 2-[3-(4-fluorophenyl)-1-(2-hydroxyethyl)-4-(4-pyridinyl)-1H-pyrazol-5-yl]cyclopropanecarboxylic acid] is lower in melting point: 257.6 to 257.7 °C for the first, 253 to 255 °C for the second.

In the case of `Cc1cccc(-c2[nH]ncc2-c2ccncn2)c1` [Example A-309, 4-[3-(3-methylphenyl)-1H-pyrazol-4-yl]pyrimidine], the melting point is reported as 151.67 °C.

In the case of `CN1CCN(c2n[nH]c(-c3ccc(N(C)C)cc3)c2-c2ccncc2)CC1` [Example A-421, 1-[5-(4-dimethylaminophenyl)-4-(4-pyridinyl)-1H-pyrazol-3-yl]-4-methylpiperazine], the melting point is reported as > 300 °C (dec.).
For `CN1CCN(c2[nH]nc(C3CCCCC3)c2-c2ccncc2)CC1` [Example A-485, 1-[cyclohexyl-4-(4-pyridinyl)-1H-pyrazol-3-yl]-4-methylpiperazine], the melting point was > 300 °C (dec.).
For `CN1CCN(c2n[nH]c(-c3cccs3)c2-c2ccncc2)CC1` [Example A-426], the melting point was 199.7 °C (dec.).

From patent US6525059B1, “Substituted pyrazoles as p38 kinase inhibitors” (G. D. Searle & Company, priority 1998, dated 2003)
